The values below come from patent US10774064B2 (Cadent Therapeutics, Inc., priority 2016, dated 2020).

The experiment concerns the target T1, small-conductance Ca2+-activated K+ channels (SK channels, subtype 2) (Homo sapiens, UniProt Q9H2S1).
T1 construct: expressed in transfected cells; host or cells: HEK293
Nature of the experiment: whole-cell patch-clamp of ionic current through SK2 channels in HEK293 cells (SC100). The format is cell-based. The note with it: concentration that increases the basal current by 100%; HEK293 cells expressing SK2 channels. The method, boiled down:
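SC100, the concentration doubling basal current (a 100% increase), was taken from SK2 currents recorded by whole-cell patch-clamp in SK2-expressing HEK293 cells.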

Take `Cc1cc(NC2CCC(F)(F)CC2)nc(-n2nc(CO)cc2C)n1` [Compound 241, (1-(4-((4,4-difluorocyclohexyl)amino)-6-methylpyrimidin-2-yl)-5-methyl-1H-pyrazol-3-yl)methanol]: the SC100 result is on record as “+ (+ means >1 uM)”.

Consider `Cc1ccn(-c2nc(NC3CCC(F)(F)CC3)cc(C3COCCC3(F)F)n2)n1` (stereo not drawn) [Compound 242, N-(4,4-difluorocyclohexyl)-6-(4,4-difluorotetrahydro-2H-pyran-3-yl)-2-(3-methyl-1H-pyrazol-1-yl)pyrimidin-4-amine], for which the SC100 entry is listed as “+ (+ means >1 uM)”.

On to `Cc1cc(C)n(-c2nc(NC3CCC(F)(F)CC3)cc(NC3COC3)n2)n1` [Compound 243, N4-(4,4-difluorocyclohexyl)-2-(3,5-dimethyl-1H-pyrazol-1-yl)-N6-(oxetan-3-yl)pyrimidine-4,6-diamine], for which the SC100 entry is reported as “+ (+ means >1 uM)”.

In the case of `Cc1cc(C)n(-c2cc(OCc3cn(C)nn3)cc(NC3CCC(F)(F)CC3)n2)n1` [Compound 244, N-(4,4-difluorocyclohexyl)-6-(3,5-dimethyl-1H-pyrazol-1-yl)-4-((l-methyl-1H-1,2,3-triazol-4-yl)methoxy)pyridin-2-amine], the SC100 result is “++ (++ means 200 nM-1000 nM)”.

`Cc1cc(NC2C[C@@H]3[C@H](C2)C3(F)F)nc(-n2ccc(C)n2)n1` (stereo partly drawn) [Compound 245, N-((1R,5S)-6,6-difluorobicyclo[3.1.0]hexan-3-yl)-6-methyl-2-(3-methyl-1H-pyrazol-1-yl)pyrimidin-4-amine]: the SC100 result is recorded as “+ (+ means >1 uM)”.

In the case of `Cc1cc(NC2CCC(F)(F)CC2)nc(-n2cc(C)c(C(F)F)n2)n1` [Compound 246, N-(4,4-difluorocyclohexyl)-2-(3-(difluoromethyl)-4-methyl-1H-pyrazol-1-yl)-6-methylpyrimidin-4-amine], the SC100 result is on record as “+++ (+++ means <200 nM)”.

Consider `Cc1cc(NC2CCC(F)(F)CC2)nc(-n2nc(C)cc2C)n1` [Compound 247, N-(4,4-difluorocyclohexyl)-2-(3,5-dimethyl-1H-pyrazol-1-yl)-6-methylpyrimidin-4-amine], for which the SC100 entry is “++ (++ means 200 nM-1000 nM)”.

Regarding `Cc1cc(C)n(-c2cc(NCc3cnn(C)n3)cc(NC3CCC(F)(F)CC3)n2)n1` [Compound 248, N2-(4,4-difluorocyclohexyl)-6-(3,5-dimethyl-1H-pyrazol-1-yl)-N4-((2-methyl-2H-1,2,3-triazol-4-yl)methyl)pyridine-2,4-diamine], the SC100 entry is on record as “++ (++ means 200 nM-1000 nM)”.

Take `CCc1cc(C)n(-c2nc(C)cc(NC3CCC(F)(F)CC3)n2)n1` [Compound 249, N-(4,4-difluorocyclohexyl)-2-(3-ethyl-5-methyl-1H-pyrazol-1-yl)-6-methyl pyrimidin-4-amine]: the SC100 result is reported as “+ (+ means >1 uM)”.

For `Cc1cc(C)n(-c2cc(NCc3cnnn3C)cc(NC3CCC(F)(F)CC3)n2)n1` [Compound 250, N2-(4,4-difluorocyclohexyl)-6-(3,5-dimethyl-1H-pyrazol-1-yl)-N4-((1-methyl-1H-1,2,3-triazol-5-yl)methyl)pyridine-2,4-diamine], the SC100 result is on record as “++ (++ means 200 nM-1000 nM)”.

In the case of `Cc1cc(C)n(-c2cc(OCc3cnn(C)n3)cc(NC3CCC(F)(F)CC3)n2)n1` [Compound 251, N-(4,4-difluorocyclohexyl)-6-(3,5-dimethyl-1H-pyrazol-1-yl)-4-((2-methyl-2H-1,2,3-triazol-4-yl)methoxy)pyridin-2-amine], the SC100 result was “++ (++ means 200 nM-1000 nM)”.

Regarding `Cc1cc(C)n(-c2cc(NCc3nnc(C)o3)cc(NC3CCC(F)(F)CC3)n2)n1` [Compound 252, N2-(4,4-difluorocyclohexyl)-6-(3,5-dimethyl-1H-pyrazol-1-yl)-N4-((5-methyl-1,3,4-oxadiazol-2-yl)methyl)pyridine-2,4-diamine], the SC100 result was “+ (+ means >1 uM)”.

For `Cc1cc(NC2CCC(F)(F)CC2)nc(-n2cc(C)c(C#N)n2)n1` [Compound 253, 1-(4-((4,4-difluorocyclohexyl)amino)-6-methylpyrimidin-2-yl)-4-methyl-1H-pyrazole-3-carbonitrile], the SC100 result was “++ (++ means 200 nM-1000 nM)”.

Turning to `Cc1cc(C)n(-c2nc(NC3CCC(F)(F)CC3)cc([C@@H]3COCC[C@H]3O)n2)n1` [Compound 254, (+)-3-(6-((4,4-difluorocyclohexyl)amino)-2-(3,5-dimethyl-1H-pyrazol-1-yl)pyrimidin-4-yl)tetrahydro-2H-pyran-4-ol], the SC100 result is recorded as “+ (+ means >1 uM)”.

As to `Cc1cc(C)n(-c2cc(NC(C)c3nccs3)cc(NC3CCC(F)(F)CC3)n2)n1` (stereo not drawn) [Compound 255, N2-(4,4-difluorocyclohexyl)-6-(3,5-dimethyl-1H-pyrazol-1-yl)-N4-(1-(thiazol-2-yl)ethyl)pyridine-2,4-diamine], the SC100 entry is given as “+ (+ means >1 uM)”.

Take `Cc1cc(NC2CCC(F)(F)CC2)nc(-n2nc(CF)cc2C)n1` [Compound 256, N-(4,4-difluorocyclohexyl)-2-(3-(fluoromethyl)-5-methyl-1H-pyrazol-1-yl)-6-methylpyrimidin-4-amine]: the SC100 result is on record as “++ (++ means 200 nM-1000 nM)”.

Consider `Cc1cc(NC2CCC(F)(F)CC2)nc(-n2cc(C)c(CF)n2)n1` [Compound 258, N-(4,4-difluorocyclohexyl)-2-(3-(fluoromethyl)-4-methyl-1H-pyrazol-1-yl)-6-methylpyrimidin-4-amine], for which the SC100 entry is “++ (++ means 200 nM-1000 nM)”.

In the case of `Cc1cc(C)n(-c2cc(NCc3ncco3)cc(NC3CCC(F)(F)CC3)n2)n1` [Compound 259, N2-(4,4-difluorocyclohexyl)-6-(3,5-dimethyl-1H-pyrazol-1-yl)-N4-(oxazol-2-ylmethyl)pyridine-2,4-diamine], the SC100 entry is listed as “+ (+ means >1 uM)”.

`CCc1cc(C)nn1-c1nc(C)cc(NC2CCC(F)(F)CC2)n1` [Compound 260, N-(4,4-difluorocyclohexyl)-2-(5-ethyl-3-methyl-1H-pyrazol-1-yl)-6-methylpyrimidin-4-amine]: the SC100 result is recorded as “+ (+ means >1 uM)”.

With `Cc1cc(C)n(-c2cc(OCc3nnc(C)o3)cc(NC3CCC(F)(F)CC3)n2)n1` [Compound 261, N-(4,4-difluorocyclohexyl)-6-(3,5-dimethyl-1H-pyrazol-1-yl)-4-((5-methyl-1,3,4-oxadiazol-2-yl)methoxy)pyridin-2-amine], the SC100 result is on record as “++ (++ means 200 nM-1000 nM)”.

Take `Cc1cc(C)n(-c2nc(NC3CCC(F)(F)CC3)cc(C3=CCCOC3)n2)n1` [Compound 262, N-(4,4-difluorocyclohexyl)-6-(5,6-dihydro-2H-pyran-3-yl)-2-(3,5-dimethyl-1H-pyrazol-1-yl)pyrimidin-4-amine]: the SC100 entry is recorded as “++ (++ means 200 nM-1000 nM)”.

As for `Cc1cc(C)n(-c2cc(OCc3ccc(F)cc3)cc(NC3CCC(F)(F)CC3)n2)n1` [Compound 263, N-(4,4-difluorocyclohexyl)-6-(3,5-dimethyl-1H-pyrazol-1-yl)-4-((4-fluorobenzyl)oxy)pyridin-2-amine], the SC100 result is listed as “++ (++ means 200 nM-1000 nM)”.

On to `COc1ccc(CNc2cc(NC3CCC(F)(F)CC3)nc(-n3nc(C)cc3C)c2)cc1` [Compound 264, N2-(4,4-difluorocyclohexyl)-6-(3,5-dimethyl-1H-pyrazol-1-yl)-N4-(4-methoxybenzyl)pyridine-2,4-diamine], for which the SC100 result was “++ (++ means 200 nM-1000 nM)”.

With `Cc1cc(NC2CCC(F)(F)CC2)nc(-n2ccc(C(C)(C)O)n2)c1` [Compound 265, 2-(1-(6-((4,4-difluorocyclohexyl)amino)-4-methylpyridin-2-yl)-1H-pyrazol-3-yl)propan-2-ol], the SC100 entry is reported as “+ (+ means >1 uM)”.

Regarding `Cc1cc(C)n(-c2cc3c(ncn3C)c(NC3CCC(F)(F)CC3)n2)n1` [Compound 266, N-(4,4-difluorocyclohexyl)-6-(3,5-dimethyl-1H-pyrazol-1-yl)-1-methyl-1H-imidazo[4,5-c]pyridin-4-amine], the SC100 entry is listed as “++ (++ means 200 nM-1000 nM)”.

In the case of `Cc1cc(NC2CCC(F)(F)CC2)nc(-c2nc(C3CC3)cs2)n1` [Compound 267, 2-(4-cyclopropylthiazol-2-yl)-N-(4,4-difluorocyclohexyl)-6-methylpyrimidin-4-amine], the SC100 entry is given as “+ (+ means >1 uM)”.

As for `Cc1cc(C)n(-c2cc(OCc3cnnn3C)cc(NC3CCC(F)(F)CC3)n2)n1` [Compound 268, N-(4,4-difluorocyclohexyl)-6-(3,5-dimethyl-1H-pyrazol-1-yl)-4-((1-methyl-1H-1,2,3-triazol-5-yl)methoxy)pyridin-2-amine], the SC100 result was “++ (++ means 200 nM-1000 nM)”.

Consider `Cc1cc(NC2CCC(F)(F)CC2)nc(-c2nc(C(F)(F)F)cs2)n1` [Compound 269, N-(4,4-difluorocyclohexyl)-6-methyl-2-(4-(trifluoromethyl)thiazol-2-yl)pyrimidin-4-amine], for which the SC100 result is “+ (+ means >1 uM)”.

As for `Cc1cc(NC2CCC(F)(F)CC2)nc(-c2nc(CO)cs2)n1` [Compound 270, (2-(4-((4,4-difluorocyclohexyl)amino)-6-methylpyrimidin-2-yl)thiazol-4-yl)methanol], the SC100 entry was “+ (+ means >1 uM)”.

In the case of `Cc1cc(C)n(-c2cc(OCc3ncnn3C)cc(NC3CCC(F)(F)CC3)n2)n1` [Compound 271, N-(4,4-difluorocyclohexyl)-6-(3,5-dimethyl-1H-pyrazol-1-yl)-4-((1-methyl-1H-1,2,4-triazol-5-yl)methoxy)pyridin-2-amine], the SC100 result is reported as “++ (++ means 200 nM-1000 nM)”.

As for `Cc1cc(C)n(-c2nc(NC3CCC(F)(F)CC3)cc(OCc3ncn(C)n3)n2)n1` [Compound 272], the SC100 result was “+ (+ means >1 uM)”.

As to `Cc1cc(NC2CCC(F)(F)CC2)nc(-c2nc(CF)cs2)n1` [Compound 273, N-(4,4-difluorocyclohexyl)-2-(4-(fluoromethyl)thiazol-2-yl)-6-methylpyrimidin-4-amine], the SC100 result is “++ (++ means 200 nM-1000 nM)”.

Consider `Cc1cc(C)n(-c2nc(NC3CCC(F)(F)CC3)cc(OCc3ncnn3C)n2)n1` [Compound 274, N-(4,4-difluorocyclohexyl)-2-(3,5-dimethyl-1H-pyrazol-1-yl)-6-((1-methyl-1H-1,2,4-triazol-5-yl)methoxy)pyrimidin-4-amine], for which the SC100 result is given as “+ (+ means >1 uM)”.
